Columns and labels:
CK1ε = CK1ε (Homo sapiens (Human), UniProt P49674); test: CK1ε kinase assay (Caliper LABCHIP electrophoretic separation of fluoresceinated peptide substrate and product); format: biochemical; conditions: 200 pM enzyme, 50 μM ATP, 22 hours at room temperature
In short: (§1)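 Kinase reactions ran 22 h at room temperature, were stopped with EDTA, and phosphorylated product was separated electrophoretically from unphosphorylated fluoresceinated peptide. Compounds were tested at eleven concentrations from 10 mM DMSO stocks. IC50 by non-linear regression.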

CK1δ = CK1δ (Homo sapiens (Human), UniProt P48730); test: CK1δ kinase assay (Caliper LABCHIP electrophoretic separation of fluoresceinated peptide substrate and product); format: biochemical; conditions: 200 pM enzyme, 50 μM ATP, 22 hours at room temperature
Sequence of CK1δ (P48730 whole entry): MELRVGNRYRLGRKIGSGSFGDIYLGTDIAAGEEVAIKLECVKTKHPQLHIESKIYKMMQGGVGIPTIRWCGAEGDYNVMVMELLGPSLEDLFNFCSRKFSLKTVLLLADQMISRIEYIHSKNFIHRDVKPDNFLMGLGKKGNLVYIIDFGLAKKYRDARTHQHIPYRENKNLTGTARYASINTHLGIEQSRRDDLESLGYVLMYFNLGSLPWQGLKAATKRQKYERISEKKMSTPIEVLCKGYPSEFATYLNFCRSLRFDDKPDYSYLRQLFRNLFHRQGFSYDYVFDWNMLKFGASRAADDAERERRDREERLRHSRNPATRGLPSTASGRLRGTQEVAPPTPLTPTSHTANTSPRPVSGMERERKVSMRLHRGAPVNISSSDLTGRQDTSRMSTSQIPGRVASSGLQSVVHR
In short: as §1

Sequence of CK1ε (P49674 whole entry): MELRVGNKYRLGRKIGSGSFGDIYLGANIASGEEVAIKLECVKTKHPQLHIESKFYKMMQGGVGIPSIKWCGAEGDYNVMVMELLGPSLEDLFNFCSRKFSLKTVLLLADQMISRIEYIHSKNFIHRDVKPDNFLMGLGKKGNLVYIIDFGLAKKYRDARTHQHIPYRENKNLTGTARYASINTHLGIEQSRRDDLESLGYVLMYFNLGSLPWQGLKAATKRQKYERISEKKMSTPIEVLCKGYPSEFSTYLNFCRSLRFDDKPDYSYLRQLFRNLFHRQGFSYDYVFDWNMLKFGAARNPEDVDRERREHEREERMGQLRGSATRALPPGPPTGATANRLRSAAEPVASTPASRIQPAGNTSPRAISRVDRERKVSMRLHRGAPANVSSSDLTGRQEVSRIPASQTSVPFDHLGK

| Structure (SMILES) | IC50 (CK1ε) | IC50 (CK1δ) |
| --- | --- | --- |
| Cc1nc(-c2ccc(F)cc2)c(-c2ccc3nc(NC(=O)c4cc5ccccc5cn4)cn3n2)n1C [Compound 311, N-(6-(4-(4-fluorophenyl)-1,2-dimethyl-1H-imidazol-5-yl)imidazo[1,2-b]pyridazin-2-yl) isoquinoline-3-carboxamide] | 46.9 nM | 33.9 nM |
| Cc1nc(-c2ccc(F)cc2)c(-c2ccc3nc(NC(=O)c4ccc5ncccc5n4)cn3n2)n1C [Compound 312, N-(6-(4-(4-fluorophenyl)-1,2-dimethyl-1H-imidazol-5-yl)imidazo[1,2-b]pyridazin-2-yl)-1,5-naphthyridine-2-carboxamide] | 19.6 nM | 8.38 nM |
| Cc1nc(-c2ccc(F)cc2)c(-c2ccc3nc(NC(=O)c4ccc5ccncc5c4)cn3n2)n1C [Compound 313, N-(6-(4-(4-fluorophenyl)-1,2-dimethyl-1H-imidazol-5-yl)imidazo[1,2-b]pyridazin-2-yl)isoquinoline-7-carbox-amide] | 1.89 nM | 0.691 nM |
| Cc1nc(-c2ccc(F)cc2)c(-c2ccc3nc(NC(=O)c4ccc(-n5cccn5)nc4)cn3n2)n1C [Compound 314, N-(6-(4-(4-fluorophenyl)-1,2-dimethyl-1H-imidazol-5-yl)imidazo[1,2-b]pyridazin-2-yl)-6-(1H-pyrazol-1-yl) nicotinamide] | 3.1 nM | 0.479 nM |
| Cc1nc(-c2ccc(F)cc2)c(-c2ccc3nc(NC(=O)[C@@H]4CCCN4)cn3n2)n1C [Compound 315, (S)-N-(6-(4-(4-fluorophenyl)-1,2-dimethyl-1H-imidazol-5-yl)imidazo[1,2-b]pyridazin-2-yl)pyrrolidine-2-carbox-amide] | 375 nM | 19.8 nM |
| Cc1nc(-c2ccc(F)cc2)c(-c2ccc3nc(NC(=O)[C@@H]4CC(F)(F)CN4)cn3n2)n1C [Compound 316, (S)-4,4-difluoro-N-(6-(4-(4-fluorophenyl)-1,2-dimethyl-1H-imidazol-5-yl)imidazo[1,2-b]pyridazin-2-yl)pyrrolidine-2-carboxamide] | 39.4 nM | 3.09 nM |
| Cc1nc(-c2ccc(F)cc2)c(-c2ccc3nc(NC(=O)c4cc5ccccc5[nH]4)cn3n2)n1C [Compound 319, N-(6-(4-(4-fluorophenyl)-1,2-dimethyl-1H-imidazol-5-yl)imidazo[1,2-b]pyridazin-2-yl)-1H-indole-2-carboxamide] | 12.1 nM | 1.73 nM |
| Cc1nc(-c2ccc(F)cc2)c(-c2ccc3nc(NC(=O)c4ccnc(F)c4)cn3n2)n1C [Compound 320, 2-fluoro-N-(6-(4-(4-fluoro-phenyl)-1,2-dimethyl-1H-imidazol-5-yl)imidazo[1,2-b]pyridazin-2-yl)isonicotin-amide] | 1.86 nM | 0.274 nM |
| Cc1nc(-c2ccc(F)cc2)c(-c2ccc3nc(NC(=O)c4ccc(F)nc4)cn3n2)n1C [Compound 321, 6-fluoro-N-(6-(4-(4-fluoro-phenyl)-1,2-dimethyl-1H-imidazol-5-yl)imidazo[1,2-b]pyridazin-2-yl)nicotinamide] | 1.97 nM | 0.152 nM |
| Cc1nc(-c2ccc(F)cc2)c(-c2ccc3nc(NC(=O)c4ccc(O)nc4)cn3n2)n1C [Compound 322, N-(6-(4-(4-fluorophenyl)-1,2-dimethyl-1H-imidazol-5-yl)imidazo[1,2-b]pyridazin-2-yl)-6-hydroxynicotinamide] | 4.76 nM | 0.473 nM |
| Cc1nc(-c2ccc(F)cc2)c(-c2ccc3nc(NC(=O)c4ccnc(N5CCOCC5)c4)cn3n2)n1C [Compound 324, N-(6-(4-(4-fluorophenyl)-1,2-dimethyl-1H-imidazol-5-yl)imidazo[1,2-b]pyridazin-2-yl)-2-morpholinoisonicotin-amide] | 1.91 nM | 0.344 nM |
| Cc1nc(-c2ccc(F)cc2)c(-c2ccc3nc(NC(=O)c4cccc(-c5cccnc5)c4)cn3n2)n1C [Compound 325, N-(6-(4-(4-fluorophenyl)-1,2-dimethyl-1H-imidazol-5-yl)imidazo[1,2-b]pyridazin-2-yl)-3-(pyridin-3-yl) benzamide] | 1.44 nM | 0.323 nM |
| Cc1cc[nH]c1C(=O)Nc1cn2nc(-c3c(-c4ccc(F)cc4)nc(C)n3C)ccc2n1 [Compound 326, N-(6-(4-(4-fluorophenyl)-1,2-dimethyl-1H-imidazol-5-yl)imidazo[1,2-b]pyridazin-2-yl)-3-methyl-1H-pyrrole-2-carboxamide] | 12.3 nM | 2.68 nM |
| Cc1nc(-c2ccc(F)cc2)c(-c2ccc3nc(NC(=O)c4cc5cnccc5[nH]4)cn3n2)n1C [Compound 327, N-(6-(4-(4-fluorophenyl)-1,2-dimethyl-1H-imidazol-5-yl)imidazo[1,2-b]pyridazin-2-yl)-1H-pyrrolo[3,2-c] pyridine-2-carboxamide] | 6.08 nM | 0.676 nM |
| Cc1nc(-c2ccc(F)cc2)c(-c2ccc3nc(NC(=O)c4cccc5ncccc45)cn3n2)n1C [Compound 328, N-(6-(4-(4-fluorophenyl)-1,2-dimethyl-1H-imidazol-5-yl)imidazo[1,2-b]pyridazin-2-yl)-5-quinolinecarboxamide] | 2.13 nM | 0.335 nM |
| Cc1nc(-c2ccc(F)cc2)c(-c2ccc3nc(NC(=O)c4ccc(-c5ccc(Cl)cc5)[nH]4)cn3n2)n1C [Compound 329, 5-(4-chlorophenyl)-N-(6-(4-(4-fluorophenyl)-1,2-di-methyl-1H-imidazol-5-yl)imidazo[1,2-b]pyridazin-2-yl)-1H-pyrrole-2-carboxamide] | 18.5 nM | 3.47 nM |
| Cc1nc(-c2ccc(F)cc2)c(-c2ccc3nc(NC(=O)c4cccc5cnccc45)cn3n2)n1C [Compound 330, N-(6-(4-(4-fluorophenyl)-1,2-dimethyl-1H-imidazol-5-yl)imidazo[1,2-b]pyridazin-2-yl)-5-isoquinoline-carboxamide] | 3.34 nM | 0.373 nM |
| Cc1nc(-c2ccc(F)cc2)c(-c2ccc3nc(NC(=O)c4cccc5ccncc45)cn3n2)n1C [Compound 331, N-(6-(4-(4-fluorophenyl)-1,2-dimethyl-1H-imidazol-5-yl)imidazo[1,2-b]pyridazin-2-yl)-8-isoquinoline-carboxamide] | 1.45 nM | 0.249 nM |
| Cc1nc(-c2ccc(F)cc2)c(-c2ccc3nc(NC(=O)c4cc5ccc(F)cc5[nH]4)cn3n2)n1C [Compound 332, 6-fluoro-N-(6-(4-(4-fluoro-phenyl)-1,2-dimethyl-1H-imidazol-5-yl)imidazo[1,2-b]pyridazin-2-yl)-1H-indole-2-carboxamide] | 6.86 nM | 0.87 nM |
| Cc1nc(-c2ccc(F)cc2)c(-c2ccc3nc(NC(=O)c4ccc(-c5ccccc5)[nH]4)cn3n2)n1C [Compound 333, N-(6-(4-(4-fluorophenyl)-1,2-dimethyl-1H-imidazol-5-yl)imidazo[1,2-b]pyridazin-2-yl)-5-phenyl-1H-pyrrole-2-carboxamide] | 3.28 nM | 1.33 nM |
| Cc1nc(-c2ccc(F)cc2)c(-c2ccc3nc(NC(=O)c4c[nH]c5ccncc45)cn3n2)n1C [Compound 334, N-(6-(4-(4-fluorophenyl)-1,2-dimethyl-1H-imidazol-5-yl)imidazo[1,2-b]pyridazin-2-yl)-1H-pyrrolo[3,2-c] pyridine-3-carboxamide] | 0.966 nM | 0.824 nM |
| Cc1nc(-c2ccc(F)cc2)c(-c2ccc3nc(NC(=O)c4ccns4)cn3n2)n1C [Compound 335, N-(6-(4-(4-fluorophenyl)-1,2-dimethyl-1H-imidazol-5-yl)imidazo[1,2-b]pyridazin-2-yl)-5-isothiazolecarboxamide] | 2.57 nM | 0.476 nM |
| Cc1nc(-c2ccc(F)cc2)c(-c2ccc3nc(NC(=O)c4ccc5ncccc5c4)cn3n2)n1C [Compound 336, N-(6-(4-(4-fluorophenyl)-1,2-dimethyl-1H-imidazol-5-yl)imidazo[1,2-b]pyridazin-2-yl)-6-quinolinecarboxamide] | 2.2 nM | 0.507 nM |
| Cc1nc(-c2ccc(F)cc2)c(-c2ccc3nc(NC(=O)c4ccc5cccnc5c4)cn3n2)n1C [Compound 337, N-(6-(4-(4-fluorophenyl)-1,2-dimethyl-1H-imidazol-5-yl)imidazo[1,2-b]pyridazin-2-yl)-7-quinolinecarboxamide] | 2.58 nM | 0.271 nM |
| Cc1c[nH]c(C(=O)Nc2cn3nc(-c4c(-c5ccc(F)cc5)nc(C)n4C)ccc3n2)c1 [Compound 338, N-(6-(4-(4-fluorophenyl)-1,2-dimethyl-1H-imidazol-5-yl)imidazo[1,2-b]pyridazin-2-yl)-4-methyl-1H-pyrrole-2-carboxamide] | 0.768 nM | 0.368 nM |
| Cc1nc(-c2ccc(F)cc2)c(-c2ccc3nc(NC(=O)c4ccc5cnccc5c4)cn3n2)n1C [Compound 339, N-(6-(4-(4-fluorophenyl)-1,2-dimethyl-1H-imidazol-5-yl)imidazo[1,2-b]pyridazin-2-yl)isoquinoline-6-carboxamide] | 1.61 nM | 0.187 nM |
| Cc1nc(-c2ccc(F)cc2)c(-c2ccc3nc(NC(=O)c4snnc4-c4ccccc4)cn3n2)n1C [Compound 340, N-(6-(4-(4-fluorophenyl)-1,2-dimethyl-1H-imidazol-5-yl)imidazo[1,2-b]pyridazin-2-yl)-4-phenyl-1,2,3-thiadiazole-5-carboxamide] | 6.28 nM | 0.4 nM |
| Cc1nc(-c2ccc(F)cc2)c(-c2ccc3nc(NC(=O)c4cc5c(F)cccc5[nH]4)cn3n2)n1C [Compound 341, 4-fluoro-N-(6-(4-(4-fluoro-phenyl)-1,2-dimethyl-1H-imidazol-5-yl)imidazo[1,2-b]pyridazin-2-yl)-1H-indole-2-carboxamide] | 8.85 nM | 1.32 nM |
| Cc1nc(-c2ccc(F)cc2)c(-c2ccc3nc(NC(=O)c4c[nH]c5ccccc45)cn3n2)n1C [Compound 342, N-(6-(4-(4-fluorophenyl)-1,2-dimethyl-1H-imidazol-5-yl)imidazo[1,2-b]pyridazin-2-yl)-1H-indole-3-carboxamide] | 4.89 nM | 1.41 nM |

From patent US9556179B2 (BRISTOL-MYERS SQUIBB COMPANY, priority 2012, dated 2017)
